Read-outs that look alike come from different tables or passages of the source.
How the values were obtained:
[1] = Peptide binding to vancomycin studied by UV spectroscopy
Description: when studied by UV spectroscopy. The binding constants for the other

Staphylococcus = conditions: cited from earlier work
[2] = no additive, HPLC
Description: (§1) Solutions containing vancomycin (1 mmol) and peptide (either 1 mmol or 2 mmol) in a total volume of 2 ml (pH 4.1-4.2) were placed in screw-capped test tubes and heated at 80° C. for 17 hr. At the end of the reaction time aliquots of the reaction mixture were analyzed for vancomycin and its degradation products, CDP-I-Major (CDP-I-M) and CDP-I-minor (CDP-I-m), by HPLC (Harris, Kopecka and Harris (1983), J. Am. Chem. Soc. 105: 6915-6922).

[3] = cited from earlier work
physchem = conditions: water, pH 4.15
Description: as §1

Description for B. subtilis: The protection of antibiotic activity of vancomycin by binding peptide is illustrated by the following experiment. Solutions containing vancomycin (2 mmol) and peptide 4 mmol) in a total volume of 1 ml (pH 4.40) were placed in screw-capped test tubes and heated at 80° C. for 66 h. The residual antibiotic activity was measured by the disc diffusion technique with B. subtilis as the test organism (Coller and Gralnick (1977), J. Clinical Investigation 60: 302-312; Crossley, Rotschafer, Chern, Mead and Zaske (1980), Antimicrob. Agents and Chemother. 17: 654-657).
Vancomycin-peptide solutions were prepared as in the previous experiments and steam sterilized (15 psi) for 30 min. Antibiotic activity was measured as in Example II.

SMILES | measurable binding to vancomycin [1] | effectiveness against Staphylococcus (Staphylococcus) | % Vancomycin remaining (unheated control) [2] | storage stability in aqueous solution, refrigerated ([3]; refrigeration temperatures (viz. 5° C.)) | potency and pH change in aqueous solution on storage ([3]; room temperature or prolonged storage under refrigeration) | % Activity (unheated) (B. subtilis; Table II, disc diffusion) | % Activity (unheated) (B. subtilis; Table III, disc diffusion) | % Activity (heated) (B. subtilis; heated 80° C. for 66 h, pH 4.40, disc diffusion) | % Activity (steam sterilized) (B. subtilis; steam sterilized (15 psi) for 30 min, disc diffusion) | remaining at 17 h (physchem)
CC(=O)N[C@H](C)C(=O)NCCC(=O)O [Ac--D-ala-β-ala] | does not exhibit any measurable binding |  |  |  |  |  |  |  |  | 
CN[C@H](CC(C)C)C(=O)N[C@H]1C(=O)N[C@@H](CC(N)=O)C(=O)N[C@H]2C(=O)N[C@H]3C(=O)N[C@H](C(=O)N[C@H](C(=O)O)c4cc(O)cc(O)c4-c4cc3ccc4O)[C@H](O)c3ccc(c(Cl)c3)Oc3cc2cc(c3O[C@@H]2O[C@H](CO)[C@@H](O)[C@H](O)[C@H]2O[C@H]2C[C@](C)(N)[C@H](O)[C@H](C)O2)Oc2ccc(cc2Cl)[C@H]1O [Vancomycin] |  | particularly effective | 92% | can be stored for several weeks | potency is lost and autogenous pH changes occur | 100% | 100% | 25% | 58% | 49%
